Experimental findings from patent US20140227174A1, “SKIN PERMEATING AND CELL ENTERING (SPACE) PEPTIDES AND METHODS OF USE THEREFOR” (CONVOY THERAPEUTICS, priority 2013, published 2014) are described below.

Common to all, as to type: in vitro ADME
Data set [1] concerns Full thickness pig skin. Kind of data set: In vitro delivery of siRNA to skin in Franz diffusion cells. The conditions noted are these: 100 microliters of 25 nmole/ml; area of 2 sq. cm; 24 hours. The protocol:
Full thickness pig skin (Lampire Biological Laboratories, Pipersville, Pa.) was used. The skin was stored at −80° C. and defrosted immediately prior to use. Briefly, the skin was allowed to thaw with the stratum corneum side up left open to the atmosphere for at least half hour. Skin disks of 36 mm were punched out. The subcutaneous fatty tissue was carefully removed from the dermis, and the hair shaft was cut off to no more than 4 mm. The skin piece was cleaned with PBS (pH 7.4). […]
In vitro skin penetration and deposition experiments of different formulations were run in Franz diffusion cells occlusively and maintained at 37±1° C. throughout the experiments. […] At the end of an experiment, a sample of 1 ml was withdrawn from the receptor phase for concentration measurement by fluorescence assay using a micro-plate reader (SAFIRE, XFLUOR4, V4.50, Tecan Group Ltd, NY, US). […]
The stratum corneum was removed by striping with an adhesive tape (SCOTCH® Transparent Tape, 3M Corporate, St. Paul, Minn.). […] The supernatant were withdrawn, diluted if necessary and analyzed by fluorescence measurement.
The concentrations of FAM-GAPDH-siRNA and FAM-GAPDH-siRNA-SPACE-Peptide conjugates were determined by fluorescence spectroscopy. Fluorescence detection was performed at an excitation of 495 nm and an emission of 525 nm for both conjugates. […]

Another data set relates to EPIDERM™ tissue. As to the kind of experiment: Penetration of SPACE Peptide formulations across EPIDERM tissue. Particulars: 100 μl on 2 cm^2, 24 hours. The protocol: Additional experiments performed using EPIDERM™ tissue confirmed penetration of SPACE Peptide across the skin. For this purpose, the SPACE Peptide formulations were prepared using the methods described herein above. EPIDERM™ tissues were obtained from MatTek Corporation (Ashland, Mass.). […] A 100 microliter formulation applied on EPIDERM™ tissue for 24 hours was determined to deliver 25% of SPACE Peptide across EPIDERM™ tissue.
FIG. 8C is a bar graph showing delivery of a fluorescent label to EPIDERM™ (left column of each pair) and a pig skin model (right column of each pair) using different formulations the contain SPACE Peptides. A 100 μl sample of various formulations was placed on a 2 cm^2 skin sample and penetration was tested 24 hours after application.

Data set [2] deals with Full thickness pig skin. The procedure: Full thickness pig skin (Lampire Biological Laboratories, Pipersville, Pa.) was used. The skin was stored at −80° C. and defrosted immediately prior to use. Briefly, the skin was allowed to thaw with the stratum corneum (SC) side up left open to the atmosphere. Skin disks of 36 mm were punched out. The subcutaneous fatty tissue was carefully removed from the dermis, and the hair shaft was clipped to no more than 4 mm. The skin pieces were cleaned with PBS (pH 7.4). Subsequently, the integrity of the skin disks were checked with a skin conductivity measurement to ensure that samples were free from any surface irregularity such as tiny holes or crevices in the portion that was used for skin penetration and deposition studies.
In vitro skin penetration and deposition experiments of different liposomal systems containing a SPACE Peptide labeled with fluorescein isothiocyanate (FITC-SPACE), CsA, or fluorescent hyaluronidase (Fluorescein-HA) were run in Franz diffusion cells occlusively and maintained at 37±1° C. throughout experiments using an oven. The effective penetration area and receptor cell volume were 1.77 cm^2 and 12.0 ml, respectively. The acceptor compartment was filled with PBS pH 7.4 as the receptor medium. Each test formulation was investigated in triplicate. Skin disks were mounted with the SC side up and the donor compartment left dry and open to atmosphere for 0.5 hour before test formulation application. Caution was taken to remove all air bubbles between the underside of the skin (dermis) and the acceptor solution. The skin was stretched in all directions to avoid the presence of furrows.
100-200 μL of the test formulation was applied to skin surface using a pipette. The experiments were carried out under occlusion with light protection. The incubation time of the skin with each test formulation was 24 hours. At the end of an experiment, a sample of 1-3 mL was withdrawn from the receptor phase for concentration measurement by fluorescence assay using a micro-plate reader (SAFIRE, XFLUOR4, V4.50, Tecan Group Ltd, NY, United States of America) for fluorescence. In the case of CsA experiments, a sample of 3 ml was withdrawn from the receptor phase for ^3H-CsA measurement by a liquid scintillation counter (TRI-GARB 2100TR, Packard Instrument Company, Downers Grove, Ill.). The formulations were removed from the skin by washing five times with PBS (pH 7.4). After cleaning, the skin was transferred onto a device for tape-stripping the SC.
The stratum corneum was removed by striping with an adhesive tape (SCOTCH® Transparent Tape, 3M Corporate, St. Paul, Minn.). In order to avoid any furrows, which could be a reason for false results of the stripping procedure, the skin was stretched and mounted on cork discs as mentioned previously. The skin was covered with a TEFLON® mask with a central hole of 15 mm in diameter. Adhesive tape was put onto the skin and a weight of 2 kg was placed on the tape for 10 seconds. The tape was rapidly removed with forceps and transferred into a glass vial of suitable size. Ten stripping procedures were performed consecutively. For analytical reasons, the stripped tapes were collected in glass vials according the following scheme: vial 1=strip 1st, vial 2=strip 2nd-5th, and vial 3=strip 6th-10th. After tape-stripping, the epidermis sheet was separated from the dermis with a sterile surgical scalpel and cut into small pieces and collected into a glass vial. […]

In data set [3] the test system is epidermis and dermis from porcine skin. As to the kind of experiment: Partitioning of SPACE Peptide into isolated epidermis and dermis. The conditions noted are these: ratio of concentrations in skin layer and surrounding PBS; aqueous solution of SPACE Peptide; after 24 hours. The protocol: FIG. 5 is a schematic representation of the measurement of partitioning of SPACE peptide. FITC-SPACE peptide was incubated epidermis-SC and dermis for […] at 37° C. and the amount of SPACE peptide partitioned into the tissue was measured.
In these experiments, epidermis and dermis from porcine skin were isolated and placed in separate vials in an aqueous solution of SPACE Peptide of SEQ ID NO: 13. The amount of SPACE Peptide that partitioned into each skin layer was measured after 24 hours. The ratio of concentrations in skin layers and surrounding PBS was used to determine the partition coefficient.

Residues, ends and D or L forms follow the SMILES beside them.

In the case of “5′-FAM-GACGUAAACGGCCACAAGUUC-3′ [siRNA aqueous solution]”, in the data set with Full thickness pig skin [1], the “penetration of siRNA into skin (applied dose)” value came to 3.3%.

`C[C@H](NC(=O)CCCCCNC(=S)Nc1ccc2c(c1)C(=O)OC21c2ccc(O)cc2Oc2cc(O)ccc21)C(=O)N[C@H]1CSSC[C@@H](C(=O)NCC(=O)O)NC(=O)[C@H](CCC(N)=O)NC(=O)[C@H](Cc2c[nH]cn2)NC(=O)[C@H](CCC(N)=O)NC(=O)[C@H]([C@@H](C)O)NC(=O)[C@H](CO)NC(=O)CNC(=O)[C@H]([C@@H](C)O)NC1=O` [FITC-SPACE] (HELM PEPTIDE1{[O=C1OC2(c3ccc(O)cc3Oc3cc(O)ccc32)c2ccc(NC(=S)[*:2])cc21].[O=C(CCCCCN[*:1])[*:2]].A.C.T.G.S.T.Q.H.Q.C.G}$PEPTIDE1,PEPTIDE1,4:R3-12:R3$$$V2.0; C-terminus assumed): the “penetration into EPIDERM tissue (FIG. 8C)” value in the data set on EPIDERM™ tissue was “penetrated into the EPIDERM™ tissue”.

Take `C[C@H](N)C(=O)N[C@H]1CSSC[C@@H](C(=O)NCC(=O)O)NC(=O)[C@H](CCC(N)=O)NC(=O)[C@H](Cc2c[nH]cn2)NC(=O)[C@H](CCC(N)=O)NC(=O)[C@H]([C@@H](C)O)NC(=O)[C@H](CO)NC(=O)CNC(=O)[C@H]([C@@H](C)O)NC1=O` [SPACE Peptide] (HELM PEPTIDE1{A.C.T.G.S.T.Q.H.Q.C.G}$PEPTIDE1,PEPTIDE1,2:R3-10:R3$$$V2.0; N-terminus and C-terminus assumed): the “penetration of FITC label into skin layers (summary of FIG. 8B)” value in the data set on Full thickness pig skin [2] is reported as “enhanced penetration of FITC-SPACE Peptide formulations”. Moreover, in data set [3], the “partition coefficient in the dermis” value amounted to 4.3 and the “partition coefficient in the epidermis” value turned out to be 9.8.

As to Hyaluronic acid [HA], in the data set on Full thickness pig skin [2], the “HA delivery in the epidermis” value is recorded as “less than 0.5 microgram per sq. cm”; the “HA delivery, formulation made at pH 8 versus otherwise identical formulation at pH 4” value is on record as “delivered less HA”; the “amount of HA in the skin compared with the receiver compartment” value is “significantly higher”; the “topically-applied HA penetrating into skin” value is listed as “about 17%”.
